# Source: paper PMC3149900 (Chemical biology & drug design, 2010)
# Conditions: PAMPA
compound,measurement,value
"CC(=O)CC(c1ccccc1)c1c(O)c2ccccc2oc1=O (stereo not shown) [Warfarin, warfarin]",Log (Pe),−4.95
